Literature values, collected in patent US20070134724A1, “Phosphorylation of tau by abl” (priority 2005, published 2007).
Where a name gives a salt, the structure may show the parent alone. Read-outs that look alike come from different tables or passages of the source.

Tests used:
Aβ [1] = conditions: guinea pig brains
Aβ [2] = conditions: neurons

**Q.** With `Cc1ccc(NC(=O)c2ccc(CN3CCN(C)CC3)cc2)cc1Nc1nccc(-c2cccnc2)n1` [Gleevec, imatinib mesylate] as the compound, how does the “production of Aβ” value (Aβ [1]) read?
**A.** inhibits

**Q.** And the “production of Aβ” value (Aβ [2])?
**A.** inhibits
